These results are taken from patent publication US10730878B2, “Fused quinoline compounds as PI3K/mTOR inhibitors” (ADVENCHEN PHARMACEUTICALS, LLC, priority 2015, dated 2020).

One experiment concerns tumor cell lines. Description: inhibition on tumor cell lines (drawing 11). It is filed as cell-based. Set-up: tumor cell line inhibition, first column under head drawing 11 / tumor cell line inhibition, third column under head drawing 11: unit not given here. The note with it: head is a drawing, cell line and unit not readable; for tumor cell line inhibition, first column under head drawing 11: first of three columns; for tumor cell line inhibition, second column under head drawing 11: second of three columns; for tumor cell line inhibition, third column under head drawing 11: third of three columns. How it is done: The following compounds or a pharmaceutically acceptable salt thereof, but not limited, can also be prepared similarly according to the methods described in Scheme I-Scheme II. They are also tested for the inhibitions on mTor or pi3k kinases, or tumor cell lines.

A further experiment has as its target T1, mTor (Homo sapiens, UniProt P42345).
T1 construct: purchased Millipore/Merck KGA of Europe (panel screening service)
The experiment in a line: mTor kinase inhibition, % activity at 0.03 μM (kinases panel screening). It is filed as biochemical. The note with it: 0.03 μM compound. The text has this:
In vitro kinase inhibition activities included Pi3k and mTor activities can be tested with Millipore/Merck KGA of Europe in their kinases panel screening. Animal antitumor activity testing can be conducted by various cancer xenograft models for a compound of formula I. […]

On to `C#CC(C)(C)c1ccc(-n2c3c4cc(-c5ccc(F)c(F)c5)ccc4ncc3n3c(C)nnc23)cc1` [3,4-Difluorophenyl; CH3; CH3, CH3; CN, 4-(3,4-difluorophenyl)-12-methyl-16-[4-(2-methylbut-3-yn-2-yl)phenyl]-8,11,13,14,16-penta-azatetracyclo[8.6.0.0^2,^7.0^11,^1^5]hexadec-1(10),2,4,6,8,12,14-heptaene], for which, in the experiment on tumor cell lines, the “tumor cell line inhibition, first column under head drawing 11” value (“tumor cell line inhibition, first column” for short) was determined as 29; the “tumor cell line inhibition, second column under head drawing 11” value was 27; the “tumor cell line inhibition, third column under head drawing 11” value (“tumor cell line inhibition, third column” for short) was 3.7.

On to `C#CC(C)(C)c1ccc(-n2c3c4cc(-c5ccccc5F)ccc4ncc3n3c(C)nnc23)cc1` [2-Fluorophenyl; CH3; CH3, CH3; CN, 4-(2-fluorophenyl)-12-methyl-16-[4-(2-methylbut-3-yn-2-yl)phenyl]-8,11,13,14,16-pentaaza-tetracyclo[8.6.0.0^2,^7.0^11,^1^5]hexadeca-1(10), 2,4,6,8,12,14-heptaene], for which, in the experiment on tumor cell lines, the “tumor cell line inhibition, first column” value is recorded as 0.6; the “tumor cell line inhibition, second column under head drawing 11” value is reported as 2.2; the “tumor cell line inhibition, third column” value was 2.

As for `Cc1nnc2n(-c3ccc(C(C)(C)C#N)cc3)c3c4cc(-c5ccncc5)ccc4ncc3n12` [4-pyridine; CH3; CH3, CH3; CN, 2-methyl-2-{4-[12-methyl-4-(pyridin-4-yl)-8,11,13,14,16-pentaazatetracyclo[8.6.0.0^2,^7.0^11,^1^5]-hexadeca-1(10), 2,4,6,8,12,14-heptaen-16-yl]phenyl}propanenitrile], in the experiment on tumor cell lines, the “tumor cell line inhibition, first column” value is 0.08; the “tumor cell line inhibition, second column under head drawing 11” value is given as 0.37; the “tumor cell line inhibition, third column” value is on record as 0.23.

For “5-[16-(4-tert-butylphenyl)-12-ethyl-8,11,13,14,16-pentaazatetracyclo[8.6.0.0^2,^7.0^11,^1^5]hexadeca-1(10),2,4,6,8,12,14-heptaen-4-yl]-N-[2-(pyrrolidin-1-yl)ethyl]pyridin-2-amine”, the “mTor % activity @0.03 μM” value at mTor is reported as 84%.

For “N-(5-{16-[4-(1-cyano-1-methylethyl)phenyl]-8,11,13,14,16-pentaazatetracyclo[8.6.0.0^2,^7.0^11,^1^5]-hexadeca-1(10), 2,4,6,8,12,14-heptaen-4-yl)}pyridin-2-yl)-2-(dimethylamino)acetamide”, the “mTor % activity @0.03 μM” value on mTor was 0%.

In the case of `Cc1nnc2n(-c3ccc(C(C)(C)C)cc3)c3c4cc(-c5cnc6[nH]ccc6c5)ccc4ncc3n12` [16-(4-tert-butylphenyl)-12-methyl-4-{1H-pyrrolo[2,3-b]pyridin-5-yl}-8,11,13,14,16-pentaaza-tetracyclo[8.6.0.0^2,^7.0^11,^1^5]hexadeca-1(10), 2,4,6,8,12,14-heptaene], at mTor, the “mTor % activity @0.03 μM” value was 54%.

“N-(5-{16-[4-(1-cyano-1-methylethyl)phenyl]-8,11,13,14,16-pentaazatetracyclo[8.6.0.0^2,^7.0^11,^1^5]-hexadeca-1(10), 2,4,6,8,12,14-heptaen-4-yl)}pyridin-2-yl)-2-(thian-4-ylamino)acetamide”: the “mTor % activity @0.03 μM” value at mTor was 103%.

With `CC(=O)Nc1ccc(-c2ccc3ncc4c(c3c2)n(-c2ccc(C(C)(C)C)cc2)c2nnc(C)n42)cn1` [N-{5-[16-(4-tert-butylphenyl)-12-methyl-8,11,13,14,16-pentaazatetracyclo[8.6.0.0^2,^7.0^11,^1^5]-hexadeca-1(10), 2,4,6,8,12,14-heptaen-4-yl]pyridin-2-yl}acetamide], the “mTor % activity @0.03 μM” value at mTor was 58%.

For the compound `CC(C)(C)c1ccc(-n2c3c4cc(-c5cnc6[nH]ccc6c5)ccc4ncc3n3cnnc23)cc1` [16-(4-tert-butylphenyl)-4-{1H-pyrrolo[2,3-b]pyridin-5-yl}-8,11,13,14,16-pentaazatetracyclo-[8.6.0.0^2,^7.0^11,^1^5]hexadeca-1(10), 2,4,6,8,12,14-heptaene], the “mTor % activity @0.03 μM” value at mTor was −15%.

For `COc1ccc(-c2ccc3ncc4c(c3c2)n(-c2ccc(C(C)(C)C)cc2)c2nnc(C)n42)cn1` [2-methoxy-5-pyridine; CH3; CH3, CH3; CH3, 16-(4-tert-butylphenyl)-4-(6-methoxypyridin-3-yl)-12-methyl-8,11,13,14,16-pentaazatetra-cyclo[8.6.0.0^2,^7.0^11,^1^5]hexadeca-1(10), 2,4,6,8,12,14-heptaene], at mTor, the “mTor % activity @0.03 μM” value turned out to be 97%.

In the case of `CC(C)(C#N)c1ccc(-n2c3c4cc(-c5cncnc5)ccc4ncc3n3cnnc23)cc1` [5-pyrimidine; H; CH3, CH3; CN, 2-methyl-2-{4-[4-(pyrimidin-5-yl)-8,11,13,14,16-pentaazatetracyclo[8.6.0.0^2,^7.0^11,^1^5]hexadeca-1(10),2,4,6,8,12,14-heptaen-16-yl]phenyl}propanenitrile], the “mTor % activity @0.03 μM” value on mTor is recorded as 64%.

In the case of “N-{5-[16-(4-tert-butylphenyl)-8,11,13,14,16-pentaazatetracyclo[8.6.0.0^2,^7.0^11,^1^5]-hexadeca-1(10),2,4,6,8,12,14-heptaen-4-yl]pyridin-2-yl}-2-(methylamino)acetamide”, the “mTor % activity @0.03 μM” value on mTor amounted to 8%.

Consider `CCc1nnc2n(-c3ccc(C(C)(C)C#N)cc3)c3c4cc(-c5ccc(NC(C)=O)nc5)ccc4ncc3n12` [N-(5-{(16-[4-(1-cyano-1-methylethyl)phenyl]-12-ethyl-8,11,13,14,16-pentaazatetracyclo-[8.6.0.0^2,^7.0^11,^1^5]hexadeca-1(10), 2,4,6,8,12,14-heptaen-4-yl)}pyridin-2-yl)acetamide], for which, on mTor, the “mTor % activity @0.03 μM” value is 72%.

Take “N-(5-{16-[4-(1-cyano-1-methylethyl)phenyl]-8,11,13,14,16-pentaazatetracyclo[8.6.0.0^2,^7.0^11,^1^5]-hexadeca-1(10), 2,4,6,8,12,14-heptaen-4-yl)}pyridin-2-yl)-2-(4-oxopiperidin-1-yl)acetamide”: on mTor, the “mTor % activity @0.03 μM” value turned out to be 54%.

For `CCc1nnc2n(-c3ccc(C(C)(C)C#N)cc3)c3c4cc(-c5cncnc5)ccc4ncc3n12` [5-pyrimidine; CH2CH3; CH3, CH3; CN, 2-{4-[12-ethyl-4-(pyrimidin-5-yl)-8,11,13,14,16-pentaazatetracyclo[8.6.0.0^2,^7.0^11,^1^5]-hexadeca-1(10),2,4,6,8,12,14-heptaen-16-yl]phenyl}-2-methylpropanenitrile], the “mTor % activity @0.03 μM” value at mTor came out at 94%.

`CC(=O)Nc1ccc(-c2ccc3ncc4c(c3c2)n(-c2ccc(C(C)(C)C#N)cc2)c2nncn42)cn1` [N-(5-{16-[4-(1-cyano-1-methylethyl)phenyl]-8,11,13,14,16-pentaazatetracyclo-[8.6.0.0^2,^7.0^11,^1^5]hexadeca-1(10),2,4,6,8,12,14-heptaen-4-yl}pyridin-2-yl)acetamide]: the “mTor % activity @0.03 μM” value on mTor is on record as −10%.

For `CCc1nnc2n(-c3ccc(C(C)(C)C#N)cc3)c3c4cc(-c5cnc6[nH]ccc6c5)ccc4ncc3n12` [2-[4-(12-ethyl-4-{(1H-pyrrolo[2,3-b]pyridin-5-yl}-8,11,13,14,16-pentaazatetracyclo-[8.6.0.0^2,^7.0^11,^1^5]hexadec-1(10),2,4,6,8,12,14-heptaen-16-yl)phenyl]-2-methylpropanenitrile], at mTor, the “mTor % activity @0.03 μM” value came out at 29%.

`CC(C)(C)c1ccc(-n2c3c4cc(-c5cccnc5)ccc4ncc3n3cnnc23)cc1` [3-pyridine; H; CH3, CH3; CH3, 16-(4-tert-butylphenyl)-4-(pyridin-3-yl)-8,11,13,14,16-pentaazatetracyclo[8.6.0.0^2,^7.0^11,^1^5]-hexadeca-1(10), 2,4,6,8,12,14-heptaene]: the “mTor % activity @0.03 μM” value at mTor was −4%.

Turning to “5-[16-(4-tert-butylphenyl)-12-ethyl-8,11,13,14,16-pentaazatetracyclo[8.6.0.0^2,^7.0^11,^1^5]hexadeca-1(10),2,4,6,8,12,14-heptaen-4-yl]-N-[2-(morpholin-4-yl)ethyl]pyridin-2-amine”, the “mTor % activity @0.03 μM” value at mTor worked out at 102%.

On to “5-[16-(4-tert-butylphenyl)-12-ethyl-8,11,13,14,16-pentaazatetracyclo[8.6.0.0^2,^7.0^11,^1^5]hexadeca-1(10),2,4,6,8,12,14-heptaen-4-yl]-N-methylpyridin-2-amine”, for which the “mTor % activity @0.03 μM” value at mTor came out at 51%.

On to “N-(5-{16-[4-(1-cyano-1-methylethyl)phenyl]-8,11,13,14,16-pentaazatetracyclo[8.6.0.0^2,^7.0^11,^1^5]-hexadeca-1(10),2,4,6,8,12,14-heptaen-4-yl)}pyridin-2-yl)-2-(pyrrolidin-1-yl)acetamide”, for which the “mTor % activity @0.03 μM” value on mTor is listed as −2%.

With `Cc1nnc2n(-c3ccc(C(C)(C)C#N)cc3)c3c4cc(-c5cnc6[nH]ccc6c5)ccc4ncc3n12` [2-methyl-2-[4-(12-methyl-4-{1H-pyrrolo[2,3-b]pyridin-5-yl}-8,11,13,14,16-pentaazatetra-cyclo[8.6.0.0^2,^7.0^11,^1^5]hexadeca-1(10),2,4,6,8,12,14-heptaen-16-yl)phenyl]propanenitrile], the “mTor % activity @0.03 μM” value on mTor worked out at 15%.

For `CC(=O)Nc1ccc(-c2ccc3ncc4c(c3c2)n(-c2ccc(C(C)(C)C)cc2)c2nncn42)cn1` [N-{5-[16-(4-tert-butylphenyl)-8,11,13,14,16-pentaazatetracyclo[8.6.0.0^2,^7.0^11,^1^5]hexadeca-1(10),2,4,6,8,12,14-heptaen-4-yl]pyridin-2-yl}acetamide], the “mTor % activity @0.03 μM” value on mTor is −6%.

Regarding “N-(5-{16-[4-(1-cyano-1-methylethyl)phenyl]-8,11,13,14,16-pentaazatetracyclo[8.6.0.0^2,^7.0^11,^1^5]-hexadeca-1(10), 2,4,6,8,12,14-heptaen-4-yl)}pyridin-2-yl)-2-(morpholin-4-yl)acetamide”, the “mTor % activity @0.03 μM” value at mTor amounted to 72%.
